From patent publication US9750733B2, “Compounds for preventing and/or treating lysosomal storage disorders and/or degenerative disorders of the central nervous system” (Amicus Therapeutics, Inc., priority 2012, dated 2017)
Where a name gives a salt, the structure may show the parent alone.

Key:
[1] = Dynamic vapor sorption (DVS) hygroscopicity analysis; assay type: physicochemical; details: for Hygroscopicity (% water uptake up to 45% relative humidity): DVS, 25° C., 60 minutes hold per 10% step in relative humidity, weight increase as percentage of material weight
Method: Differences in hygroscopicity (moisture uptake) of the various forms of a solid material provide a measure of their relative stability at increasing relative humidity. Dynamic vapor sorption (DVS) analysis was performed for (3R,4R,5S)-5-(difluoromethyl)piperidine-3,4-diol, (3R,4R,5S)-5-(difluoromethyl)piperidine-3,4-diol fumarate Form A, (3R,4R,5S)-5-(difluoromethyl)piperidine-3,4-diol fumarate Form 1B and (3R,4R,5S)-5-(difluoromethyl)piperidine-3,4-diol tosylate. Moisture sorption isotherms for samples of each salt and the free base were obtained using a DVS-1 system from Surface Measurement Systems (London, UK). The relative humidity was cycled from 45% to 95% (sorption), back to 0% (desorption) and back to 45% (sorption) at a constant temperature of 25° C. with a hold time of 60 minutes per each 10% step in relative humidity. The increase in weight due to moisture uptake was measured as a percentage of the weight of the material.

β-glucocerebrosidase = molecular target: T1, β-glucocerebrosidase (Homo sapiens, UniProt P04062); details: as described in US 2011/0091442 and 2011/0092541; cited from earlier work
T1 sequence (P04062 40-536): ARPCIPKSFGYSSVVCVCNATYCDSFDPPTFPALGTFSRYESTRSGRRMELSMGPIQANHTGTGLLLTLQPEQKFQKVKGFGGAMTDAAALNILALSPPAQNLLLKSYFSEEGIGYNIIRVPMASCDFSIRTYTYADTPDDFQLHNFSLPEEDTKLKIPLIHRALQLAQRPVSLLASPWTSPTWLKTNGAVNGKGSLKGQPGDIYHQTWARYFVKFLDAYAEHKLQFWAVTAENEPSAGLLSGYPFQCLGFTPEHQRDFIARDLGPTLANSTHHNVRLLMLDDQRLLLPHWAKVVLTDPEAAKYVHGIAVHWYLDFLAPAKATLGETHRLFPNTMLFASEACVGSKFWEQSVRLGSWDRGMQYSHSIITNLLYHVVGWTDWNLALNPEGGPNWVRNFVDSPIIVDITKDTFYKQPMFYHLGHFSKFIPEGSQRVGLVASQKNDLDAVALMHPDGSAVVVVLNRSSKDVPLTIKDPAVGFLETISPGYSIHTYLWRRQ

[2] = Physical stability under stress and ambient conditions; assay type: physicochemical
Text: (§1) The hydrochloride and fumarate Forms B, B2 and B3 salts of (3R,4R,5S)-5-(difluoromethyl)piperidine-3,4-diol were also found to be hygroscopic.

[3] = Separate dynamic vapor sorption test (hydrochloride salt); assay type: physicochemical
Text: as §1

O[C@H]1[C@H](O)CNC[C@@H]1C(F)F [Free Base, (3R,4R,5S)-5-(difluoromethyl)piperidine-3,4-diol]
Hygroscopicity (% water uptake up to 45% relative humidity) [1]: 9.3% | Inhibition of β-glucocerebrosidase (in words) (β-glucocerebrosidase): potent and selective inhibitors

O=C(O)/C=C/C(=O)O.O[C@H]1[C@H](O)CNC[C@@H]1C(F)F [Fumarate Form 1B, (3R,4R,5S)-5-(difluoromethyl) piperidine-3,4-diol fumarate Form 1B]
Hygroscopicity (% water uptake up to 45% relative humidity) [1]: 0.497% | Hygroscopicity of the salt relative to the free base (fold lower than free base) ([1]; comparison of the Table 6 DVS values): roughly 20 fold

O[C@H]1[C@H](O)CNC[C@@H]1C(F)F [Fumarate Form A, (3R,4R,5S)-5-(difluoromethyl)piperidine-3,4-diol fumarate Form A]
Hygroscopicity (% water uptake up to 45% relative humidity) [1]: 0.09% | Physical state after one day at 40° C. and 75% relative humidity [2]: physically stable | Physical stability in slurries ([2]; slurries at 10° C. and 30° C. in a variety of organic solvents): physically stable | Physical stability on wet grinding ([2]; wet grinding for 60 minutes at 30 Hz): physically stable

Cc1ccc(S(=O)(=O)O)cc1.O[C@H]1[C@H](O)CNC[C@@H]1C(F)F [Tosylate, (3R,4R,5S)-5-(difluoromethyl)piperidine-3,4-diol tosylate]
Hygroscopicity (% water uptake up to 45% relative humidity) [1]: 0.08%

O=C(O)/C=C/C(=O)O.O[C@H]1[C@H](O)CNC[C@@H]1C(F)F [fumarate Form B3, (3R,4R,5S)-5-(difluoromethyl) piperidine-3,4-diol fumarate Form B3]
Stability at ambient conditions ([2]; at least one day at ambient conditions (room temperature)): remained stable

O=C(O)/C=C/C(=O)O.O[C@H]1[C@H](O)CNC[C@@H]1C(F)F [fumarate Form B, (3R,4R,5S)-5-(difluoromethyl) piperidine-3,4-diol fumarate Forms B, B2 and B3]
Hygroscopicity (in words) [2]: hygroscopic | Physical state after one day at 40° C. and 75% relative humidity [2]: became deliquescent

Cl.O[C@H]1[C@H](O)CNC[C@@H]1C(F)F [hydrochloride, (3R,4R,5S)-5-(difluoromethyl)piperidine-3,4-diol hydrochloride]
Relative humidity after which the salt became deliquescent [3]: > 60 % relative humidity | Inhibition of β-glucocerebrosidase (in words) (β-glucocerebrosidase): potent and selective inhibitors | Hygroscopicity (in words) [2]: hygroscopic
